Experiments:
[1] = studies have shown; cited from earlier work
THG15 cells = assay: Cell viability assay (CCK-8); format: cell-based; conditions: Homo sapiens, 72 hours, estimated IC50, read-out: IC50 (half maximal inhibitory concentration), cell viability
Experimental: Patient-derived tumor cell were obtained with the approval of the Ethics Committee of the Beijing Tsinghua Changgung Hospital in compliance with informed consent of the patient and their family. […] Briefly, the tissues were mechanically minced and then digested with 0.1% trypsin (Hyclone) and 10 U/ml DNasel (Roche) at 37° C. for 45 min. The tissues were passed through a 100-μm cell strainer after lysis of red blood cells and several washes. Cells that that passed through the filter were collected and added with EF medium composed of Neurobasal medium, 3 mM L-glutamine, 1×B27 supplement, 0.5×N2 supplement, 2 μg/mL heparin, 20 ng/mL recombinant human EGF (Sigma-Aldrich), 20 ng/mL recombinant human FGF2 (Sigma-Aldrich), and 0.5×antibiotic antimycotic complex. Fresh EF medium was replenished every 3 days during cell culture. Tumor cell spheres were dissociated using NeuroCult Chemical Dissociation kit (StemCell), and cells were passaged.
Panobinostat (LBH589) and Tazemetostat (EPZ-6438) were purchased from Selleck Chemicals and dissolved in 0.1% DMSO before use. About 5,000 THG15 cells were seeded into each well of a 96-well plate and cultured in EF medium for 24 hours prior to drug intervention. […] According to the instructions, cell viability was determined by using a CCK-8 kit (GK10001), and the optical density was measured at 450 nm using a SPARK reader (TECAN). […]

Structure (SMILES) | penetration of the blood-brain barrier [1] | IC50 (THG15 cells) [µM]
Cc1[nH]c2ccccc2c1CCNCc1ccc(/C=C/C(=O)NO)cc1 [panobinostat, Panobinostat] | can penetrate the blood-brain barrier | ~1
CCN(c1cc(-c2ccc(CN3CCOCC3)cc2)cc(C(=O)NCc2c(C)cc(C)[nH]c2=O)c1C)C1CCOCC1 [tazemetostat, Tazemetostat] |  | ~50
